In patent US20240366770A1, “DEGRADATION OF BRUTON'S TYROSINE KINASE (BTK) BY CONJUGATION OF BTK INHIBITORS WITH E3 LIGASE LIGAND AND METHODS OF USE” (BeiGene Switzerland GmbH, priority 2021, published 2024):

Experiments:
[1] = tested on: HEK-293 cells; test: HEK-293 cytotoxicity detection (CellTiter-Glo); type: cell-based; details: Homo sapiens; HEK-293 cells, 72 h incubation, CellTiter-Glo luminescence, IC50 of cell proliferation inhibition; read-out: HEK293
Protocol: (§1) HEK-293 cells were treated with compounds diluted in 0.2% DMSO, dilution was done according to the following protocol: (1) making 500× stock solution in DMSO from 5 mM by 4-fold dilution, total 8 doses were included; (2) making 2× solution in cell culture medium by transferring 0.5 ul 500× stock solution into 125 μl medium; (3) adding 50 μl of 2× solution to cells for incubation of 72 h.
25 μl of the CellTiter-Glo®Reagent [(Promega) -Cat No. G7572] was added to each well in the 96-well plate. The contents were mixed for 2 minutes on an orbital shaker to induce cell lysis. The plate was then allowed to incubate at room temperature for 10 minutes to stabilize luminescent signal. Luminescence was recorded on BMG PheraStar with luminescence protocol.
The IC50 value of a compound can be obtained by fitting the following equation
(§2) Wherein, X and Y are known values, and IC50, Hillslope, Top and Bottom are the parameters obtained by fitting with software. Y is the inhibition percentage (calculated from the equation), X is the concentration of the compound; IC50 is the concentration of the compound when the 50% inhibition is reached. The smaller the IC50 value is, the stronger the inhibitory ability of the compound is. Vice versa, the higher the IC50 value is, the weaker the ability the inhibitory ability of the compound is; Hillslope represents the slope of the fitted curve, generally around 1 *; Bottom represents the minimum value of the curve obtained by data fitting, which is generally 0%±20%; Top represents the maximum value of the curve obtained by data fitting, which is generally 100%±20%. The experimental data were fitted by calculating and analyzing with Dotmatics data analysis software.

[2] = target: T1, BTK (Homo sapiens, UniProt Q06187); test: BTK degradation in TMD-8 cells (HTRF assay); type: cell-based; details: 6 h treatment, IC50 (DC50) of BTK degradation
T1 construct: High control=Cell group with added DMSO and without compound, indicating microplate readings without BTK degradation; endogenous in cells; host or cells: TMD-8
T1 sequence (Q06187 whole entry): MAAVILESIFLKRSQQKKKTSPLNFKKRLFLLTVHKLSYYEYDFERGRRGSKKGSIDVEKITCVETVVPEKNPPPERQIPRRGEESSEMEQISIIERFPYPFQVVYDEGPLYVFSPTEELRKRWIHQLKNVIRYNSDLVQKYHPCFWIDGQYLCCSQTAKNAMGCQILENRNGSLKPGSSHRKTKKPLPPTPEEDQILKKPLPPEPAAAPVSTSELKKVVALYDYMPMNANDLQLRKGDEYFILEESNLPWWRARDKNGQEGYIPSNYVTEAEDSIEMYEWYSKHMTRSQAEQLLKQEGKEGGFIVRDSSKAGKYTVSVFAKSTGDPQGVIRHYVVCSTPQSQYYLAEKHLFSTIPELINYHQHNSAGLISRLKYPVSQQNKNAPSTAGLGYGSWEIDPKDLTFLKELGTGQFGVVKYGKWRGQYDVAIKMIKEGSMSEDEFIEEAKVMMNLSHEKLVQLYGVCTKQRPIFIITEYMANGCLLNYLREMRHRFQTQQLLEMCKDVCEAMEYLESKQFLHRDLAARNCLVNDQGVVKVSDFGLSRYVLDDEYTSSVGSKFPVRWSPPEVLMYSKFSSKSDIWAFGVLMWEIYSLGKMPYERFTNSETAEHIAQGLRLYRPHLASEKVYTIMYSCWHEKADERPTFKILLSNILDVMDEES
Protocol: as §1, with “TMD-8 cells” for “HEK-293 cells”, “from 1” for “from 5”, “by 6-fold” for “by 4-fold”, “0.5 μl” for “0.5 ul”, “adding 15” for “adding 50”, “of 6” for “of 72”
After 6 h treatment, 10 μl 4× lysis buffer was added to each well; the plate was sealed and incubated for 30 min at room temperature on a plate shaker; Once the cells was lysed, 16 μL of cell lysate were transferred to a PE 384-well HTRF detection plate; 4 μL of pre-mixed HTRF antibodies were added to each well; the plate was covered with a plate sealer, and then spinned at 1000 rpm for 1 min, then incubated overnight at room temperature; the results were read on BMG PheraStar with HTRF protocol (337 nm-665 nm-620 nm).
The IC50 (DC50) value of a compound can be obtained by fitting the following equation
as §2, with “wherein,” for “Wherein,”

SMILES | DC50 [2] [nM] | IC50 [1] [nM]
Cc1cc(-c2ncnc3[nH]c4c(c23)CCC(N2CCN(C3CC(c5ccc([C@H]6CCC(=O)NC6=O)cc5)C3)CC2)C4)ccc1[C@@H](C)NC(=O)c1nc(C(C)(C)C)no1 (stereo partly drawn) [Example 133, 3-(tert-butyl)-N-((1R)-1-(4-(7-(4-(3-(4-((R)-2,6-dioxopiperidin-3-yl)phenyl)cyclobutyl)piperazin-1-yl)-6,7,8,9-tetrahydro-5H-pyrimido[4,5-b]indol-4-yl)-2-methylphenyl)ethyl)-1,2,4-oxadiazole-5-carboxamide] | > 2000 | > 10000
COc1cc2c(cc1N1CCN([C@H]3C[C@@H](c4ccc(O[C@@H]5CCC(=O)NC5=O)cc4)C3)CC1)[nH]c1ncnc(-c3ccc([C@@H](C)NC(=O)c4nc(C(C)(C)C)no4)c(C)c3)c12 [Example 127, 3-(tert-butyl)-N—((R)-1-(4-(7-(4-((1S,3s)-3-(4-(((R)-2,6-dioxopiperidin-3-yl)oxy)phenyl)cyclobutyl)piperazin-1-yl)-6-methoxy-9H-pyrimido[4,5-b]indol-4-yl)-2-methylphenyl)ethyl)-1,2,4-oxadiazole-5-carboxamide] | 2.49 | > 10000
Cc1cc(-c2ncnc3[nH]c4cc(N5CCC6(CC5)CCN([C@H]5C[C@@H](c7ccc([C@@H]8CCC(=O)NC8=O)cc7)C5)CC6)ccc4c23)ccc1[C@@H](C)NC(=O)c1nc(C(C)(C)C)no1 [Example 111, 3-(tert-butyl)-N—((R)-1-(4-(7-(9-((1R,3s)-3-(4-((S)-2,6-dioxopiperidin-3-yl)phenyl)cyclobutyl)-3,9-diazaspiro[5.5]undecan-3-yl)-9H-pyrimido[4,5-b]indol-4-yl)-2-methylphenyl)ethyl)-1,2,4-oxadiazole-5-carboxamide] | 2.89 | 1370
Cc1c([C@@H](C)NC(=O)c2noc(C(C)(C)C)n2)ccc(-c2ncnc3[nH]c4cc(N5CCN(C6CCN(c7ccc(C8CCC(=O)NC8=O)cc7)CC6)CC5)ccc4c23)c1F (stereo partly drawn) [Example 29, 5-(tert-butyl)-N-((1R)-1-(4-(7-(4-(1-(4-(2,6-dioxopiperidin-3-yl)phenyl)piperidin-4-yl)piperazin-1-yl)-9H-pyrimido[4,5-b]indol-4-yl)-3-fluoro-2-methylphenyl)ethyl)-1,2,4-oxadiazole-3-carboxamide] | 3.16 | > 10000
COc1cc2c(cc1N1CCN(C3CCN(c4cccc(C5CCC(=O)NC5=O)c4)C3)CC1)[nH]c1ncnc(-c3ccc([C@@H](C)NC(=O)c4noc(C(C)(C)C)n4)c(C)c3F)c12 (stereo partly drawn) [Example 61, 5-(tert-butyl)-N-((1R)-1-(4-(7-(4-(1-(3-(2,6-dioxopiperidin-3-yl)phenyl)pyrrolidin-3-yl)piperazin-1-yl)-6-methoxy-9H-pyrimido[4,5-b]indol-4-yl)-3-fluoro-2-methylphenyl)ethyl)-1,2,4-oxadiazole-3-carboxamide] | 5.52 | > 10000
COc1cc2c(cc1N1CCN(CC3CCN(c4ccc(N5CCC(=O)NC5=O)cc4)CC3)CC1)[nH]c1ncnc(-c3ccc([C@@H](C)NC(=O)c4nc(C5(C)CC5)no4)c(C)c3F)c12 [Example 53, (R)—N-(1-(4-(7-(4-((1-(4-(2,4-dioxotetrahydropyrimidin-1(2H)-yl)phenyl)piperidin-4-yl)methyl)piperazin-1-yl)-6-methoxy-9H-pyrimido[4,5-b]indol-4-yl)-3-fluoro-2-methylphenyl)ethyl)-3-(1-methylcyclopropyl)-1,2,4-oxadiazole-5-carboxamide] | 2.26 | > 10000

Now those with a lower DC50 [2], led by results:

DC50 [2] [nM] | SMILES | IC50 [1] [nM]
0.874 | COc1cc2c(cc1N1CCN(C3CCC(c4ccc(C5CCC(=O)NC5=O)cc4)CC3)CC1)[nH]c1ncnc(-c3ccc([C@@H](C)NC(=O)c4nc(C(C)(C)C)no4)c(C)c3)c12 (stereo partly drawn) [Example 48, 3-(tert-butyl)-N-((1R)-1-(4-(7-(4-(4-(4-(2,6-dioxopiperidin-3-yl)phenyl)cyclohexyl)piperazin-1-yl)-6-methoxy-9H-pyrimido[4,5-b]indol-4-yl)-2-methylphenyl)ethyl)-1,2,4-oxadiazole-5-carboxamide] | > 10000
0.49 | COc1cc2c(cc1N1CCN([C@H]3C[C@@H](c4ccc(N[C@H]5CCC(=O)NC5=O)cc4)C3)CC1)[nH]c1ncnc(-c3cc(C)c([C@@H](C)NC(=O)c4nc(C5(C)CC5)no4)cc3F)c12 [Example 95, N—((R)-1-(4-(7-(4-((1R,3s)-3-(4-(((S)-2,6-dioxopiperidin-3-yl)amino)phenyl)cyclobutyl)piperazin-1-yl)-6-methoxy-9H-pyrimido[4,5-b]indol-4-yl)-5-fluoro-2-methylphenyl)ethyl)-3-(1-methylcyclopropyl)-1,2,4-oxadiazole-5-carboxamide] | > 10000
0.481 | Cc1cc(-c2ncnc3[nH]c4cc(N5CCN(CC6CCN(c7ccc(N8CCC(=O)NC8=O)c(C)c7)CC6)CC5)ccc4c23)ccc1[C@@H](C)NC(=O)c1nc(C(C)(C)C)no1 [Example 8, (R)-3-(tert-butyl)-N-(1-(4-(7-(4-((1-(4-(2,4-dioxotetrahydropyrimidin-1(2H)-yl)-3-methylphenyl)piperidin-4-yl)methyl)piperazin-1-yl)-9H-pyrimido[4,5-b]indol-4-yl)-2-methylphenyl)ethyl)-1,2,4-oxadiazole-5-carboxamide] | > 10000
0.361 | COc1cc2c(cc1N1CCN(CC3CCN(c4ccc(N5CCC(=O)NC5=O)cc4)CC3)CC1)[nH]c1ncnc(-c3ccc([C@@H](C)NC(=O)c4nc(C5(C)CC5)no4)c(C)c3)c12 [Example 52, (R)—N-(1-(4-(7-(4-((1-(4-(2,4-dioxotetrahydropyrimidin-1(2H)-yl)phenyl)piperidin-4-yl)methyl)piperazin-1-yl)-6-methoxy-9H-pyrimido[4,5-b]indol-4-yl)-2-methylphenyl)ethyl)-3-(1-methylcyclopropyl)-1,2,4-oxadiazole-5-carboxamide] | > 10000
0.341 | Cc1cc(-c2ncnc3[nH]c4cc(N5CCN(CCc6ccc(N7CCC(=O)NC7=O)c(C)c6)CC5)ccc4c23)ccc1[C@@H](C)NC(=O)c1nc(C(C)(C)C)no1 [Example 17, (R)-3-(tert-butyl)-N-(1-(4-(7-(4-(4-(2,4-dioxotetrahydropyrimidin-1(2H)-yl)-3-methylphenethyl)piperazin-1-yl)-9H-pyrimido[4,5-b]indol-4-yl)-2-methylphenyl)ethyl)-1,2,4-oxadiazole-5-carboxamide] | > 10000
0.294 | Cc1cc(-c2ncnc3[nH]c4cc(C5CCN(CC6CCN(c7ccc(N8CCC(=O)NC8=O)cc7)CC6)CC5)ccc4c23)ccc1CNC(=O)c1nc(C(C)(C)C)no1 [Example 4, 3-(tert-butyl)-N-(4-(7-(1-((1-(4-(2,4-dioxotetrahydropyrimidin-1(2H)-yl)phenyl)piperidin-4-yl)methyl)piperidin-4-yl)-9H-pyrimido[4,5-b]indol-4-yl)-2-methylbenzyl)-1,2,4-oxadiazole-5-carboxamide] | 3660
0.266 | COc1cc2c(cc1N1CCN(Cc3ccc4c(c3)n(C)c(=O)n4C3CCC(=O)NC3=O)CC1)[nH]c1ncnc(-c3ccc([C@@H](C)NC(=O)c4nc(C(C)(C)C)no4)c(C)c3)c12 (stereo partly drawn) [Example 69, 3-(tert-butyl)-N-((1R)-1-(4-(7-(4-((1-(2,6-dioxopiperidin-3-yl)-3-methyl-2-oxo-2,3-dihydro-1H-benzo[d]imidazol-5-yl)methyl)piperazin-1-yl)-6-methoxy-9H-pyrimido[4,5-b]indol-4-yl)-2-methylphenyl)ethyl)-1,2,4-oxadiazole-5-carboxamide] | > 10000
